Source: US20170226507A1, “COORDINATE CONTROL OF PATHOGENIC SIGNALING BY THE MIR-130/301 FAMILY IN PULMONARY HYPERTENSION AND FIBROPROLIFERATIVE DISEASES” (The Brigham and Women's Hospital, Inc., priority 2014, published 2017)

Assays:
[1] = test system: PASMCs; assay: Gene/miRNA expression in transfected or drug-treated PASMCs (immunoblotting, RT-qPCR); type: cell-based, human
Description: Pre-miRNA oligonucleotides (pre-miR-130a, pre-miR-204, pre-miR-424, and pre-miR-503 and negative control pre-miR-NC1 and premiR-NC2, Life Technologies), anti-miRNAs oligonucleotides (anti-miR-130a and anti-miR-NC, ThermoScientific), tiny LNA oligonucleotides (tiny-130: 5′-[…]-3′ (SEQ ID NO: 3), and tiny-NC 5′-[…]-3′ (SEQ ID NO: 51), Exiqon), siRNAs (PPARγ and scrambled control, Santa Cruz Biotechnology; HIF-1α, HIF-2α, and scrambled control, Life Technologies) were commercially purchased. PAECs and PASMCs were plated and transfected 24 h later at 70-80% confluence using pre-miRNA (5 nM), anti-miRNA (20 nM), tiny-LNA (20 nM) or siRNA (25 nM) with Lipofectamine 2000 reagent (Life Technologies), according to the manufacturers' instructions.
Primary human pulmonary arterial endothelial cells (PAECs) were purchased and propagated in EGM-2 cell culture media (Lonza). Experiments were performed at passages 3 to 6. Primary human pulmonary arterial smooth muscle cells (PASMCs) were purchased and propagated in SmGM-2 cell culture media (Lonza). Experiments were performed at passages 3 to 9. HEK293T cells (American Type Culture Collection) were used and cultivated in DMEM containing 10% fetal bovine serum (FBS). Cells were cultured at 37° C. in a humidified 5% CO2 atmosphere. A modular hypoxia chamber at 0.2% oxygen, 94.8% nitrogen and 5% carbon dioxide was used during 24 h for hypoxic conditions. Cultured cells were exposed to recombinant human IL-1α at 10 ng·mL-1 (Peprotech). Recombinant human IL-6 (Peprotech) was used at 100 ng·mL-1. Rosiglitazone (Sigma) was used at 10 μM.
Mature miRNA expression was evaluated using TaqMan MicroRNA Assays (Life Technologies/Applied Biosystems) and the Applied Biosystems 7900HT Fast Real Time PCR device (Life Technologies/Applied Biosystems). Expression levels were normalized to RNU48 or snoR55 for human or mouse experiments, respectively, and calculated using the comparative Ct method (2^−ΔΔCt) as we previously described (1).
Messenger RNAs were reverse transcribed using the Multiscript RT kit (Life Technologies) to generate cDNA. cDNA was amplified via fluorescently labeled Taqman primer sets using an Applied Biosystems 7900HT Fast Real Time PCR device, as we previously described (1). Fold-change of RNA species was calculated using the formula (2^−ΔΔCt), normalized to actin expression.
Cells were lysed in RIPA buffer (Santa Cruz Biotechnology) and the protein concentration determined using a Bradford assay (Biorad). Protein lysate ([…]) were resolved by SDS-PAGE and transferred onto a PVDF membrane (Biorad). Membranes were blocked in 5% non-fat milk in TN buffer (50 mM Tris-HCl pH 7.4, 150 mM NaCl) and incubated in the presence of the primary and then secondary antibodies. After washing in TN buffer containing 0.1% Tween, immunoreactive bands were visualized with the ECL system (Amersham Biosciences). […] Primary antibodies for STAT3 (#9139) and P-STAT3 (Tyr-705; #9145) were purchased from Cell Signaling. Primary antibodies against actin (ab 3280), α-smooth-muscle-actin (ab 32575), CD31 (ab28364), and PCNA (ab 29) were obtained from Abcam. Appropriate secondary antibodies (anti-rabbit and anti-mouse) coupled to HRP were used (Santa Cruz Biotechnology).

[2] = test system: PAAFs; assay: ECM remodeling experiment (naïve PAAFs plated on remodeled ECM); type: cell-based, human
Protocol: After the different treatment cells were fixed with PBS/PFA 4% for 10 min and permeabilized with PBS/Triton 100×0.1% for 10 min. Then cells were incubated with anti-YAP1 (#4912; 1/100; Cell signaling) at 4° C. overnight. Secondary antibodies coupled with Alexa-594 (Life Technologies) were used at 1:500. Nuclei were counterstained with DAPI (Sigma).
Following treatment, PAAFs were plated atop soft matrices (see below) in normal growth medium supplemented with 0.5% FBS. After three days, 10 ug/mL of puromycin was added to the growth medium for 48 hours to detach the cells from the matrix. Matrices were washed 3 times (PBS). Naïve PAAFs were then plated on top of these matrices supplemented with normal growth medium 0.5% FBS or harvested for assessment of collagen crosslinking (Picrosirius Red stain). Sixteen hours later, cells were harvested for immunofluorescence experiments or RNA extraction.
Picrosirius Red stain was achieved through the use of 5 μm paraffin sections stained with 0.1% Picrosirius Red (Direct Red80, Sigma-Aldrich) and counterstained with Weigert's hematoxylin to reveal fibrillar collagen. The sections were then serially imaged using with an analyzer and polarizer oriented parallel and orthogonal to each other. Microscope conditions (lamp brightness, condenser opening, objective, zoom, exposure time, and gain parameters) were constant throughout the imaging of all samples. A minimal threshold was set on appropriate control sections for each experiment in which only the light passing through the orthogonally-oriented polarizers representing fibrous structures (i.e., excluding residual light from the black background) was included. The threshold was maintained for all images across all conditions within each experiment. The area of the transferred regions that was covered by the thresholded light was calculated and at least 10 sections/vessel per condition were averaged together (Image J software).

tiny-LNA-130: fully LNA-modified tiny LNA oligonucleotide 5′-ATTGCACT-3′ (SEQ ID NO: 3) complementary to the seed region of the miR-130/301 family (all LNA, backbone and methylation of C not given here)
downstream gene/subordinate miRNA alterations (PPARγ, STAT3, P-STAT3, miR-204) ([1]; normoxia or hypoxia, compared with anti-miR-130a): reversed such downstream gene/subordinate miRNA alterations to a greater extent than inhibition of miR-130a alone
collagen, CTGF, and LOX ([1]; tiny-LNA-130: stiffness-mediated up-regulation): reversed
CCND1 expression ([1]; transcripts): decreased
CDKN1A, CDKN1B and CDKN2A expression ([1]; transcripts): increased
NFATC2 and PIM1 expression ([1]; transcripts 48 h after transfection): decreased
collagen crosslinking of remodeled ECM ([2]; Picrosirius Red): reversed
collagen, LOX, CTGF, and POU5F1/OCT4 in naïve cells plated on remodeled ECM ([2]; RT-qPCR): down-regulated
miR-130/301 in naïve cells plated on remodeled ECM ([2]; RT-qPCR): down-regulated
